Source: US9732119B2, “Immunomodulators” (BRISTOL-MYERS SQUIBB COMPANY, priority 2014, dated 2017)
Non-standard residues stand in square brackets, D forms with d. Residues, ends and D or L forms follow the SMILES beside them. Trp(1-CH2COOH) = N[C@@H](Cc1cn(CC(=O)O)c2ccccc12)C(=O)O; Phe(4-F) = N[C@@H](Cc1ccc(F)cc1)C(=O)O; Phe(4-Me) = Cc1ccc(C[C@H](N)C(=O)O)cc1; Hyp = O=C(O)[C@@H]1C[C@@H](O)CN1; NMeNle = CCCC[C@H](NC)C(=O)O; Pip = O=C(O)[C@@H]1CCCCN1; Dab = NCC[C@H](N)C(=O)O; Dap = NC[C@H](N)C(=O)O; Ava = NCCCCC(=O)O

Target: T1, PD-1-Ig binding to PD-L1-TVMV-His (PD-L1-His) (Homo sapiens, UniProt Q9NZQ7)
T1 construct: hPDL1(19-239)-TVMV-His; made in house; host or cells: HEK293T cells
Test: PD-1/PD-L1 Homogenous Time-Resolved Fluorescence (HTRF) binding assay
Conditions: PD-1-Ig (20 nM) / PD-L1-His (10 nM); numeric values
Summary of the method: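 HTRF competition: compound pre-incubated 15 min with PD-L1-His (10 nM final), then PD-1-Ig (20 nM final) added for 15 min in dPBS, 0.1% BSA, 0.05% Tween-20. Detection with Eu-cryptate anti-Ig (1 nM) and APC anti-His (20 nM) antibodies.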

T1 sequence (Q9NZQ7 with tags, fused parts or gaps): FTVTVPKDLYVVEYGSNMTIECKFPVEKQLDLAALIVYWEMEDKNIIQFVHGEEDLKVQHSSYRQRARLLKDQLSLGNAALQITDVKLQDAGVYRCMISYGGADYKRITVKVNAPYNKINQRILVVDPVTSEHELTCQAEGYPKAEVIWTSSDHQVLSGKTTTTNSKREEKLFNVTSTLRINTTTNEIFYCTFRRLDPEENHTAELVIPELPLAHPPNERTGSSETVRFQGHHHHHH

SMILES | IC50 [nM]
CCCC[C@H]1C(=O)N(C)[C@@H](CCCC)C(=O)N[C@@H](CC(C)C)C(=O)N[C@H](C(=O)NCC(N)=O)CNCC(=O)N[C@@H](Cc2ccc(F)cc2)C(=O)N(C)[C@@H](C)C(=O)N[C@@H](CC(=O)O)C(=O)N2CCC[C@H]2C(=O)N[C@@H](CCC(N)=O)C(=O)N[C@@H](CC(=O)O)C(=O)N2C[C@H](O)C[C@H]2C(=O)N[C@@H](Cc2c[nH]c3ccccc23)C(=O)N[C@@H](CC(N)=O)C(=O)N[C@@H](Cc2cn(CC(=O)O)c3ccccc23)C(=O)N1C [Example 9015] | 15
C=C(C)C[C@@H]1NC(=O)[C@H](C)N(C)C(=O)[C@H](Cc2ccccc2)NC(=O)CNC[C@@H](C(=O)NCC(N)=O)NC(=O)[C@H](CC(C)C)NC(=O)[C@H](CCCC)N(C)C(=O)[C@H](CCCC)N(C)C(=O)[C@H](Cc2c[nH]c3ccccc23)NC(=O)[C@H](CC(C)C)NC(=O)[C@H](Cc2c[nH]c3ccccc23)NC(=O)[C@@H]2CCCN2C(=O)[C@H](CC(C)C)NC(=O)[C@H](CC(C)C)NC(=O)[C@@H]2CCCN2C1=O [Example 10005] | 10000

Same assay, conditions: PD-1-Ig (20 nM) / PD-L1-His (10 nM); range classes

SMILES | IC50 [nM]
CCCC[C@H]1C(=O)N(C)[C@@H](CCCC)C(=O)N[C@@H](CC(C)C)C(=O)N[C@H](C(N)=O)CNCC(=O)N[C@@H](Cc2ccc(F)cc2)C(=O)N2CCCC[C@H]2C(=O)N[C@@H](CC(N)=O)C(=O)N2CCCC2C(=O)N[C@@H](Cc2c[nH]cn2)C(=O)N[C@@H](CCC(N)=O)C(=O)N2C[C@H](O)C[C@H]2C(=O)N[C@@H](Cc2c[nH]c3ccccc23)C(=O)N[C@@H](C)C(=O)N[C@@H](Cc2cn(CC(=O)O)c3ccccc23)C(=O)N1C (stereo partly drawn) [Example 9053] | 1 to 9.9
CCCC[C@H]1C(=O)N(C)[C@@H](CCCC)C(=O)N[C@@H](CO)C(=O)N[C@H](C(=O)NCC(N)=O)CCCNCC(=O)N[C@@H](Cc2ccc(O)cc2)C(=O)N(C)[C@@H](C)C(=O)N[C@@H](CC(N)=O)C(=O)N2CCC[C@H]2C(=O)N[C@@H](Cc2cnc[nH]2)C(=O)N[C@@H](CCC(N)=O)C(=O)N2C[C@H](O)C[C@H]2C(=O)N[C@@H](Cc2c[nH]c3ccccc23)C(=O)N[C@@H](CO)C(=O)N[C@@H](Cc2c[nH]c3ccccc23)C(=O)N1C [Example 10025] | 100 to 10000
CCCC[C@H]1C(=O)N(C)[C@@H](CCCC)C(=O)N[C@@H](CC(C)C)C(=O)N[C@H](C(N)=O)CNCC(=O)N[C@@H](Cc2ccc(OC)cc2)C(=O)N2CCCC[C@H]2C(=O)N[C@@H](CC(N)=O)C(=O)N2CCC[C@H]2C(=O)N[C@@H](CN)C(=O)N[C@@H](CC(C)C)C(=O)N2C[C@H](O)C[C@H]2C(=O)N[C@@H](Cc2c[nH]c3ccccc23)C(=O)N[C@@H](CCN)C(=O)N[C@@H](Cc2cn(CC(=O)O)c3ccccc23)C(=O)N1C [Example 1042] | 10 to 99
CCCC[C@H]1C(=O)N(C)[C@@H](CCCC)C(=O)N[C@@H](CC(C)C)C(=O)NCCCCC(=O)N[C@@H](Cc2ccc(F)cc2)C(=O)N2CCCC[C@H]2C(=O)N[C@@H](CC(N)=O)C(=O)N2CCC[C@H]2C(=O)N[C@@H](CN)C(=O)N[C@@H](CC(C)C)C(=O)N2C[C@H](O)C[C@H]2C(=O)N[C@@H](Cc2c[nH]c3ccccc23)C(=O)N[C@@H](CCN)C(=O)N[C@@H](Cc2cn(CC(=O)O)c3ccccc23)C(=O)N1C [Example 10536] (cyclo([Ava][Phe(4-F)][Pip]NP[Dap]L[Hyp]W[Dab][Trp(1-CH2COOH)][NMeNle][NMeNle]L)) | 1 to 9.9
CCCC[C@H]1C(=O)N(C)[C@@H](CCCC)C(=O)N[C@@H](CCC(=O)O)C(=O)N[C@H](C(=O)NCC(N)=O)CNCC(=O)N[C@@H](Cc2ccc(O)cc2)C(=O)N(C)[C@@H](C)C(=O)N[C@@H](CC(N)=O)C(=O)N2CCC[C@H]2C(=O)N[C@@H](CCC(N)=O)C(=O)N[C@@H](CCC(N)=O)C(=O)N2C[C@H](O)C[C@H]2C(=O)N[C@@H](Cc2c[nH]c3ccccc23)C(=O)N[C@@H](CC(N)=O)C(=O)N[C@@H](Cc2cn(CC(=O)O)c3ccccc23)C(=O)N1C [Example 9021] | 10 to 99
CCCC[C@H]1C(=O)N(C)[C@@H](CCCC)C(=O)N[C@@H](C)C(=O)N[C@H](C(=O)NCC(N)=O)CNCC(=O)N[C@@H](Cc2ccc(O)cc2)C(=O)N(C)[C@@H](C)C(=O)N[C@@H](CC(=O)O)C(=O)N2CCC[C@H]2C(=O)N[C@@H](Cc2cnc[nH]2)C(=O)N[C@@H](CCC(N)=O)C(=O)N2C[C@H](O)C[C@H]2C(=O)N[C@@H](Cc2c[nH]c3ccccc23)C(=O)N[C@@H](CO)C(=O)N[C@@H](Cc2cn(CC(=O)O)c3ccccc23)C(=O)N1C [Example 10014] | 1 to 9.9
CCCC[C@H]1C(=O)N(C)[C@@H](CCCC)C(=O)N[C@@H](C)C(=O)N[C@H](C(=O)NCC(N)=O)CCCNCC(=O)N[C@@H](Cc2ccc(O)cc2)C(=O)N(C)[C@@H](C)C(=O)N[C@@H](CC(=O)O)C(=O)N2CCC[C@H]2C(=O)N[C@@H](Cc2cnc[nH]2)C(=O)N[C@@H](CCC(N)=O)C(=O)N2C[C@H](O)C[C@H]2C(=O)N[C@@H](Cc2c[nH]c3ccccc23)C(=O)N[C@@H](CO)C(=O)N[C@@H](Cc2cn(CC(=O)O)c3ccccc23)C(=O)N1C [Example 10016] | 1 to 9.9
CCCC[C@H]1C(=O)N(C)[C@@H](CCCC)C(=O)N[C@@H](CC(C)C)C(=O)N[C@H](C(=O)NCC(N)=O)CNCC(=O)N[C@@H](Cc2ccc(F)cc2)C(=O)N(C)[C@@H](C)C(=O)N[C@@H](CC(N)=O)C(=O)N2CCC[C@H]2C(=O)N[C@@H](CCC(N)=O)C(=O)N[C@@H](CCC(=O)O)C(=O)N2C[C@H](O)C[C@H]2C(=O)N[C@@H](Cc2c[nH]c3ccccc23)C(=O)N[C@@H](CC(N)=O)C(=O)N[C@@H](Cc2cn(CC(=O)O)c3ccccc23)C(=O)N1C [Example 9011] | 10 to 99
CCCC[C@H]1C(=O)N(C)[C@@H](CCCC)C(=O)N[C@@H](CC(C)C)C(=O)NCCCCC(=O)N[C@@H](Cc2ccc(C)cc2)C(=O)N2CCCC[C@H]2C(=O)N[C@@H](CC(N)=O)C(=O)N2CCC[C@H]2C(=O)N[C@@H](CN)C(=O)N[C@@H](CCC(=O)O)C(=O)N2C[C@H](O)C[C@H]2C(=O)N[C@@H](Cc2c[nH]c3ccccc23)C(=O)N[C@@H](CCN)C(=O)N[C@@H](Cc2cn(CC(=O)O)c3ccccc23)C(=O)N1C [Example 10541] (cyclo([Ava][Phe(4-Me)][Pip]NP[Dap]E[Hyp]W[Dab][Trp(1-CH2COOH)][NMeNle][NMeNle]L)) | 1 to 9.9
CCCC[C@H]1C(=O)N(C)[C@@H](CCCC)C(=O)N[C@@H](CC(C)C)C(=O)N[C@H](C(=O)NCC(N)=O)CNCC(=O)N[C@@H](Cc2ccc(F)cc2)C(=O)N(C)[C@@H](C)C(=O)N[C@@H](CC(N)=O)C(=O)N2CCC[C@H]2C(=O)N[C@@H](CCC(N)=O)C(=O)N[C@@H](CC(C)C)C(=O)N2C[C@H](O)C[C@H]2C(=O)N[C@@H](Cc2c[nH]c3ccccc23)C(=O)N[C@@H](CC(N)=O)C(=O)N[C@@H](Cc2cn(CC(=O)O)c3ccccc23)C(=O)N1C [Example 9009] | 1 to 9.9
CCCC[C@H]1C(=O)N(C)[C@@H](CCCC)C(=O)N[C@@H](CC(C)C)C(=O)N[C@H](C(=O)NCC(N)=O)CNCC(=O)N[C@@H](Cc2ccc(O)cc2)C(=O)N(C)[C@@H](C)C(=O)N[C@@H](CC(N)=O)C(=O)N2CCC[C@H]2C(=O)N[C@@H](CCC(N)=O)C(=O)N[C@@H](CC(C)C)C(=O)N2C[C@H](O)C[C@H]2C(=O)N[C@@H](Cc2c[nH]c3ccccc23)C(=O)N[C@@H](CC(N)=O)C(=O)N[C@@H](Cc2cn(CC(=O)O)c3ccccc23)C(=O)N1C [Example 9005] | 1 to 9.9
CCCC[C@H]1C(=O)N(C)[C@@H](CCCC)C(=O)NC(CC(C)C)C(=O)N[C@H](C(=O)NCC(N)=O)CNCC(=O)N[C@@H](Cc2ccc(O)cc2)C(=O)N(C)[C@@H](C)C(=O)N[C@@H](CC(N)=O)C(=O)N2CCC[C@H]2C(=O)N[C@@H](CC(N)=O)C(=O)N[C@@H](CC(C)C)C(=O)N2CCC[C@H]2C(=O)N[C@@H](Cc2c[nH]c3ccccc23)C(=O)N[C@@H](CC(N)=O)C(=O)N[C@@H](Cc2c[nH]c3ccccc23)C(=O)N1C (stereo partly drawn) [Example 10002] | 10 to 99
CCCC[C@H]1C(=O)N(C)[C@@H](CCCC)C(=O)N[C@@H](CC(C)C)C(=O)N[C@H](C(=O)NCC(N)=O)CCCNCC(=O)N[C@@H](Cc2ccc(O)cc2)C(=O)N(C)[C@@H](C)C(=O)N[C@@H](CC(N)=O)C(=O)N2CCC[C@H]2C(=O)N[C@@H](Cc2cnc[nH]2)C(=O)N[C@@H](CC(C)C)C(=O)N2C[C@H](O)C[C@H]2C(=O)N[C@@H](Cc2c[nH]c3ccccc23)C(=O)NCC(=O)N[C@@H](Cc2c[nH]c3ccccc23)C(=O)N1C [Example 10028] | 100 to 10000
CCCC[C@H]1C(=O)N(C)[C@@H](CCCC)C(=O)NC(CC(C)C)C(=O)N[C@H](C(=O)NCC(N)=O)CNCC(=O)N[C@@H](Cc2ccc(O)cc2)C(=O)N(C)[C@@H](C)C(=O)N[C@@H](CC(N)=O)C(=O)N2CCC[C@H]2C(=O)N[C@@H](CN)C(=O)N[C@@H](CC(C)C)C(=O)N2C[C@H](O)C[C@H]2C(=O)N[C@@H](Cc2c[nH]c3ccccc23)C(=O)N[C@@H](CCN)C(=O)N[C@@H](Cc2cn(CC(=O)O)c3ccccc23)C(=O)N1C (stereo partly drawn) [Example 1030] | 1 to 9.9
CCCC[C@H]1C(=O)N(C)[C@@H](CCCC)C(=O)N[C@@H](CC(C)C)C(=O)N[C@H](C(N)=O)CNCC(=O)N[C@@H](Cc2ccc(O)cc2)C(=O)N2CCCC[C@H]2C(=O)N[C@@H](CC(=O)O)C(=O)N2CCC[C@H]2C(=O)N[C@@H](CCC(N)=O)C(=O)N[C@@H](CC(=O)O)C(=O)N2C[C@H](O)C[C@H]2C(=O)N[C@@H](Cc2c[nH]c3ccccc23)C(=O)N[C@@H](CC(N)=O)C(=O)N[C@@H](Cc2cn(CC(=O)O)c3ccccc23)C(=O)N1C [Example 9035] | 1 to 9.9
CCCC[C@H]1C(=O)N(C)[C@@H](CCCC)C(=O)N[C@@H](CC(C)C)C(=O)N[C@H](C(N)=O)CNCC(=O)N[C@@H](Cc2ccc(F)cc2)C(=O)N2CCCC[C@H]2C(=O)N[C@@H](CC(N)=O)C(=O)N2CCC[C@H]2C(=O)N[C@@H](CCC(N)=O)C(=O)N[C@@H](CC(C)C)C(=O)N2C[C@H](O)C[C@H]2C(=O)N[C@@H](Cc2c[nH]c3ccccc23)C(=O)N[C@@H](CC(N)=O)C(=O)N[C@@H](Cc2cn(CC(=O)O)c3ccccc23)C(=O)N1C [Example 9030] | 10 to 99
